Experimental data taken from PMC9398908, “GLP-1-mediated delivery of tesaglitazar improves obesity and glucose metabolism in male mice” (Nature Metabolism, 2022).

Key:
hGLP-1R = molecular target: T1, hGLP-1R (Homo sapiens, UniProt P43220); test: Ligand-induced Mini-Gαs recruitment to hGLP-1R-GFP (BRET) in HEK293T cells; type: cell-based; conditions: HEK293 cells transfected with human GLP-1R; dose response, Fig. 1a; in words
T1 construct: host or cells: HEK293T, transient transfection
Experimental: (§1) HEK293T cells (700,000 per well) were seeded in six-well plates and incubated to 70% confluency in DMEM (10% FBS, 1% Pen/Strep). Twenty-four hours following seeding, transient transfections were performed using Lipofectamine 2000 (catalogue no. 11668019, Invitrogen) according to the manufacturer’s protocol without including additional transformation carrier DNA.
Twenty-four hours following transfection, HEK293T cells or MIN6 cells were washed with PBS and resuspended in FluoroBrite phenol red-free complete media (catalogue no. A1896701, Life Technologies) containing 5% FBS and 2 mM of L-glutamine (catalogue no. 25030081, Life Technologies). 100,000 cells per well were plated into poly-D-lysine-coated (catalogue no. P6403, Sigma-Aldrich) 96-well white polystyrene LumiNunc plates (catalogue no. 10072151, Thermo Fisher Scientific). After 24 h, the media was replaced with PBS (catalogue no. 10010056, Gibco) containing 10 μM of coelenterazine-h (catalogue no. S2011, Promega) or 1:500 dilution of NanoGlo (catalogue no. N1110, Promega). BRET measurements were taken every 30 s–2 min using a PHERAstar FS multi-mode microplate reader. […] The resulting ligand-specific ratiometric BRET signals were normalized to vehicle producing the ‘ligand-induced BRET ratio’[37], followed by an additional normalization step to well-specific baseline readings.

PPARγ2/RXR = molecular target: T2, PPARγ2/RXR (Homo sapiens, UniProt P37231); test: RXR-Rluc8 / PPARγ2-YFP heterodimerization (BRET) in hGLP-1R(−) HEK293T cells; type: cell-based; conditions: GLP-1R (-), 1μM
T2 construct: host or cells: HEK293T, with (A8) or without (A9) co-expressed hGLP-1R
T2 sequence (P37231 1-505): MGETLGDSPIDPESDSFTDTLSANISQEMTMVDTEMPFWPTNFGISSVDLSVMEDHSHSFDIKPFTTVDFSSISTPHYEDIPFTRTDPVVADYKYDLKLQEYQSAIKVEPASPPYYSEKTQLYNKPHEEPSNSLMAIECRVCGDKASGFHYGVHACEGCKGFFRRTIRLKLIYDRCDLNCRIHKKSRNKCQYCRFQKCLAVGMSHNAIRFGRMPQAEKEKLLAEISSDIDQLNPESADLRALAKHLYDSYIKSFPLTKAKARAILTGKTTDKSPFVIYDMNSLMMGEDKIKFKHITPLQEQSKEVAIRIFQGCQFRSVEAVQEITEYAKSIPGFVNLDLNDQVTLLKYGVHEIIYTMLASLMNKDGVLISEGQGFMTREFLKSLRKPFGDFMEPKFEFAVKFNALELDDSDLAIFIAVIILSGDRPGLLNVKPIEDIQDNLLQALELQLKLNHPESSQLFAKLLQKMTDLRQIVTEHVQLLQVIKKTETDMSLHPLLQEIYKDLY
T2 sequence (P19793 1-462 partner): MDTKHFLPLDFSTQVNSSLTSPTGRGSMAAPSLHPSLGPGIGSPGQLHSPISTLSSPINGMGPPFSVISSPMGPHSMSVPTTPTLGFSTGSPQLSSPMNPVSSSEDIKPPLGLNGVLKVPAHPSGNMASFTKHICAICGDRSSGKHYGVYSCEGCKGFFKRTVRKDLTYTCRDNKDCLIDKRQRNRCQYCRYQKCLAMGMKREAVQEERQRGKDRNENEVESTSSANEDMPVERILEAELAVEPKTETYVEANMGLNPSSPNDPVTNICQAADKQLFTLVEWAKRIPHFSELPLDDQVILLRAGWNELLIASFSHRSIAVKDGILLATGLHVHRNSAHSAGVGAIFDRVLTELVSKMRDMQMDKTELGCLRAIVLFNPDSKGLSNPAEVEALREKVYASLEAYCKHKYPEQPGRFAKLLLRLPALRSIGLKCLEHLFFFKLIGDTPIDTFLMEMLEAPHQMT
Experimental: as §1
Twenty-four hours following transfection, HEK293T cells or MIN6 cells were washed with PBS and resuspended in FluoroBrite phenol red-free complete media (catalogue no. A1896701, Life Technologies) containing 5% FBS and 2 mM of L-glutamine (catalogue no. 25030081, Life Technologies). 100,000 cells per well were plated into poly-D-lysine-coated (catalogue no. P6403, Sigma-Aldrich) 96-well white polystyrene LumiNunc plates (catalogue no. 10072151, Thermo Fisher Scientific). After 24 h, the media was replaced with PBS (catalogue no. 10010056, Gibco) containing 10 μM of coelenterazine-h (catalogue no. S2011, Promega) or 1:500 dilution of NanoGlo (catalogue no. N1110, Promega). BRET measurements were taken every 30 s–2 min using a PHERAstar FS multi-mode microplate reader. Baseline measurements were taken after an initial 5 min of incubation with coelenterazine-h or NanoGlo-containing PBS after which cells were then treated with either vehicle (PBS) or respective ligands. The resulting ligand-specific ratiometric BRET signals were normalized to vehicle producing the ‘ligand-induced BRET ratio’[37], followed by an additional normalization step to well-specific baseline readings. Ligand-induced measurements on the temporal scale is represented as the subsequent measurement after time point zero. Positive or negative incremental AUC (+iAUC/−iAUC) were calculated where noted. Each experiment was independently performed at least three times, each with at least three technical replicates for each group.
Untagged hGLP-1R was purchased from Sino Biological Inc. (catalogue no. HG13944-UT), hGLP-1R-GFP was a kind gift from D. Hodson (University of Birmingham), and hGLP-1R-Rluc8 was a kind gift from P. Sexton (Monash University, Melbourne, Australia). Gαs recruitment to the GLP-1R-GFP was quantified using mini-Gαs, a protein probe that translocates to ligand-bound Gαs-coupled G-protein coupled receptors. NES-Nluc-MiniGαs was a gift from K. Pfleger (Harry Perkins Institute of Medical Research, Nedlands, Western Australia, Australia). Intracellular cAMP was measured using the YFP-Epac-Rluc CAMYEL sensor[39]. hGLP-1R-RLUC8 internalization was quantified using the intracellular plasma membrane marker Venus-KRAS[40]. […] GLP-1R-Rluc8 lysosomal colocalization was measured using Lamp1-mNeonGreen. […] Time-dependent RXR/PPARγ heterodimerization was measured using RXR-Rluc8 and PPARγ2-YFP, both of which were kind gifts from V. Ollendorf[41].

T1 sequence (P43220 24-463): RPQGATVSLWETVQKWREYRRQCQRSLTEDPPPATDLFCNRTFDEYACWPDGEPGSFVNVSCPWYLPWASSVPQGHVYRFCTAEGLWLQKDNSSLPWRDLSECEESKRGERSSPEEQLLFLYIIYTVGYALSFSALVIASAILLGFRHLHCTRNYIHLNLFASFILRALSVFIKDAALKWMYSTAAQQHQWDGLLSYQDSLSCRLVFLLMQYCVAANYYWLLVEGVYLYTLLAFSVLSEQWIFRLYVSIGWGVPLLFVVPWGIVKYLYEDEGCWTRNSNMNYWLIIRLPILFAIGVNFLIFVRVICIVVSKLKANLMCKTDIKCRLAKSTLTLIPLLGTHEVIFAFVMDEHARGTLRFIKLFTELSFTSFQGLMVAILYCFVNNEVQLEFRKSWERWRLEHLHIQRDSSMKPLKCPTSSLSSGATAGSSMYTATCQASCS

CCO[C@@H](Cc1ccc(OCCc2ccc(OS(C)(=O)=O)cc2)cc1)C(=O)O [tesaglitazar, (S)-2-ethoxy-3-(4-(4-((methylsulfonyl)oxy)phenethoxy)phenyl) propanoic acid]
GLP-1R-mediated Gαs recruitment (hGLP-1R): had no effect | RXR/PPARγ Heterodimerization (AUC), +iAUC (PPARγ2/RXR; replicate 1): 59.69 | RXR/PPARγ Heterodimerization (AUC), +iAUC (PPARγ2/RXR; replicate 2): 107.20 | RXR/PPARγ Heterodimerization (AUC), +iAUC (PPARγ2/RXR; replicate 3): 71.87 | RXR/PPARγ Heterodimerization (AUC), +iAUC (PPARγ2/RXR; replicate 4): 114.00
